Here are results for 15 molecules from patent publication US20190352276A1, “INHIBITORS OF BRUTON'S TYROSINE KINASE” (Joint Stock Company "Biocad", priority 2016, published 2019).

Data set [1] has as its system Z-138 (mantle cell lymphoma). Description: Antiproliferative activity, Z-138 cells (Alamar Blue). The note with it: Homo sapiens, Table 10, 72 h, average of several tests. It is filed as cell-based. The procedure: (§1) Antiproliferative activity of BTK inhibitors was measured in cell-based bioassay on B-cells cultures: Mino (mantle cell lymphoma, ATCC® CRL-3000™), Z-138 (mantle cell lymphoma, ATCC® CRL-3001™) and DOHH2 (follicular lymphoma, Creative Bioarray CSC-C0219) using cell viability reagent Alamar Blue (Invitrogen, #DAL 1100). Cells were cultured in 10% FB S-supplemented (HyClone, #SH3008803/Gibco, #16140-071) RPMI-1640 (PanEco, #S330p) for at least 1 passage after thawing, washed with PBS and passaged in 96-well culture plates (Corning, #3599) with growth medium with 10% FBS (HyClone, #SH3008803/Gibco, #16140-071) and antibiotic (50 μg/ml of gentamicin (Biolot, #1.3.16))≈3*10^4 cells in 50 μl of medium per well.
(§2) The compounds were dissolved in DMSO and diluted with the assay medium to final concentrations ranging from […]. 150 μl of each diluted compound were then added to each well (final concentration of DMSO was less than 1%) and incubated at 37° C. in an incubator under 5% of CO2 for 72 h. After incubation, 20 μl of Alamar Blue reagent (Invitrogen, #DAL1100) were added to each well. The plates were shaked on an orbital shaker (Biosan, Latvia) and then incubated for 14-16 hours at 37° C. in the incubator.
(§3) The number of living cells were estimated, measuring the fluorescence signal at the excitation wavelength (REx) of 540 nm and the emission wavelength (λEm) of 590 nm on a microplate reader (Tecan Infinite M200Pro, Switzerland).
(§4) For each compound, IC50 was calculated using Magellan 7.2 software (Tecan, Switzerland) approximating experimental points by four-parameter logistic model with the optimization by Levenberg-Marquardt.

Data set [2] relates to HepG2 cells (hepatocellular carcinoma). Kind of data set: General cytotoxicity on HepG2 cells (CC50; therapeutic index CC50 HepG2/IC50 Mino). It counts as cell-based. The note with it: Table 10; therapeutic index. The procedure:
(§5) The CC50 values were determined in the test for General cytotoxicity on HepG2 cells (hepatocellular carcinoma, ATCC® HB-8065™). 2*10^4 cells (in 50 μl) per well were seeded in 96-well plates (Corning, #3599) in DMEM medium (PanEco, #S420p), after 24 h of incubation 150 μl of candidate compounds were added to each well in the range of final concentrations from 200 μM to 4 μM and the plate was incubated in a total volume of 200 μl for 72 hours. Viability of the cells was assessed using Alamar Blue dye (Invitrogen, #DAL 1100). CC50 was determined similarly (table 10).
(§6) The relationship between toxic (CC50) and a therapeutic (IC50) effects of the dose is the therapeutic index, which can be expressed as the ratio between CC50 (HepG2) (general cytotoxicity of the candidate) and IC50 (Mino) (antiproliferative activity on the target cells): […]

Test in data set [3]: as above
It counts as cell-based. The note with it: human, HepG2 cells (hepatocellular carcinoma); Table 10; 72 hours, Alamar Blue; average of several tests. The method, then:
as §5, §6

The subject of data set [4] is Mino (mantle cell lymphoma). Kind of data set: Antiproliferative activity, Mino cells (Alamar Blue). The following applies: Homo sapiens, Table 10, 72 h, average of several tests. It counts as cell-based. The procedure: as §1, §2, §3, §4
(Resazurin is reduced to fluorescent resorufin, in cell work by metabolically active cells.)

Data set [5] can be described thus: Chemical stability in artificial gastric fluid (SGF without enzymes). The following applies: 10 μM in SGF without enzymes, pH=1.4, 37° C.
Experimental: The initial candidate solution (10 mM in DMSO) was diluted with the working solution of SGF to the concentration of 10 μm (test solution). The test solution was incubated in a dry block heater at 37° C. We determined peak areas of the compounds corresponding to the start of the test (before incubating) and the end of the test (after incubating in a dry block heater at 37° C.) by HPLC using Agilent1200 chromatograph (Agilent, USA). We used gradient elution (1 mL/min flow rate). We determined amount of substance in the sample in % after incubation.
We evaluated the stability of the compounds.

Molecules are shown by their SMILES.

Consider `C=CC(=O)N1CCC[C@@H](n2nc(-c3ccc(-n4ccc(=O)cc4)cc3)c3c(Cl)c(O)cnc32)C1` [BCD-BTK-13, (R)-1-(4-(1-(1-acryloylpiperidin-3-yl)-4-chloro-5-hydroxy-1H-pyrazolo[3,4-b]pyridin-3-yl)phenyl)pyridin-4(1H)-one], for which the IC50 (in general, the concentration that gives 50% inhibition) is over 50 µM in data set [1] and 37.1 µM in data set [4]. The “CC50 (HepG2)/IC50 (Mino)” value in data set [2] is on record as over 2.70. Besides, in data set [3], the CC50 – broadly, the concentration at which the toxic effect on the cells reaches its halfway point – at 72 h is over 100 µM. Besides, the “Amount of substance in the sample in % (chemical stability)” value (from here on “Amount of substance in the sample in %”) in data set [5] turned out to be 91.0%.

For the molecule `C=CC(=O)N1CCC[C@@H](n2nc(-c3ccc(-n4ccc(=O)cc4)cc3)c3cncc(Cl)c32)C1` [BCD-BTK-30, (R)-1-(4-(1-(1-acryloylpiperidin-3-yl)-7-chloro-1H-pyrazolo[4,3-c]pyridin-3-yl)phenyl)pyridin-4(1H)-one], the IC50 in data set [1] was 22.7 µM; in data set [4] it was 15.6 µM. The “CC50 (HepG2)/IC50 (Mino)” value in data set [2] is on record as 3.94. The molecule also yielded a CC50 at 72 h in data set [3] of 61.5 µM. Moreover, in data set [5], the “Amount of substance in the sample in %” value is on record as 97.7%.

As for `C=CC(=O)N1CCC[C@@H](n2nc(-c3ccc(-n4ccc(=O)cc4)nc3)c3cncc(Cl)c32)C1` [BCD-BTK-56, (R)-5′-(1-(1-acryloylpiperidin-3-yl)-7-chloro-1H-pyrazolo[4,3-c]pyridin-3-yl)-4H-[1,2′-bipyridin]-4-one], the IC50 in data set [1] worked out at 30.5 µM; in data set [4] it was 32.5 µM. Further, the “CC50 (HepG2)/IC50 (Mino)” value in data set [2] is recorded as over 1.54. The CC50 at 72 h in data set [3] was over 50 µM. Besides, in data set [5], the “Amount of substance in the sample in %” value was determined as 99.0%.

As for `C=CC(=O)N1CCC[C@@H](n2nc(-c3cnc(-n4ccc(=O)cc4)nc3)c3c(N)ncc(Cl)c32)C1` [BCD-BTK-74, (R)-1-(5-(1-(1-acryloylpiperidin-3-yl)-4-amino-7-chloro-1H-pyrazolo[4,3-c]pyridin-3-yl)pyrimidin-2-yl)pyridin-4(1H)-one], the figures for the IC50 in data set [1] and in data set [4] were 17.6 µM and 21.9 µM, respectively. Besides, the “CC50 (HepG2)/IC50 (Mino)” value in data set [2] amounted to 4.57. In data set [3], the cytotoxic concentration (CC50) at 72 h came out at 100 µM. For the same molecule, the “Amount of substance in the sample in %” value in data set [5] is on record as 98.7%.

Consider `C=CC(=O)N1CCC[C@@H](n2nc(-c3ccc(-n4ccc(=O)cc4)nc3)c3c(N)ncc(Cl)c32)C1` [BCD-BTK-76, (R)-5′-(1-(1-acryloylpiperidin-3-yl)-4-amino-7-chloro-1H-pyrazolo[4,3-c]pyridin-3-yl)-4H-[1,2′-bipyridin]-4-one], for which the concentration for half-maximal inhibition (IC50) in data set [1] was 19.6 µM; in data set [4] it was 16 µM. Also, in data set [2], the “CC50 (HepG2)/IC50 (Mino)” value was over 6.27. Besides, the CC50 at 72 h in data set [3] was over 100 µM. Also, the “Amount of substance in the sample in %” value in data set [5] is recorded as 99.7%.

Take `C=CC(=O)Nc1cc2c(-c3ccc(-n4ccc(=O)cc4)cc3)nn([C@@H]3CCCN(C(=O)C=C)C3)c2nc1C` [BCD-BTK-117, (R)-N-(1-(1-acryloylpiperidin-3-yl)-6-methyl-3-(4-(4-oxopyridin-1(4H)-yl)phenyl)-1H-pyrazolo[3,4-b]pyridin5-yl)acrylamide]: the IC50 in data set [1] came out at 23.4 µM; in data set [4], 13.3 µM. The “CC50 (HepG2)/IC50 (Mino)” value in data set [2] was over 3.76. The same molecule registered a half-maximal cytotoxic concentration (CC50) at 72 h in data set [3] of over 50 µM. Also, the “Amount of substance in the sample in %” value in data set [5] was found to be 99.7%.

For the molecule `C=CC(=O)Oc1cc(C#N)c2c(c1)c(-c1ccc(-n3ccc(=O)cc3)cc1)nn2[C@@H]1CCCN(C(=O)C=C)C1` [BCD-BTK-118, (R)-1-(1-acryloylpiperidin-3-yl)-7-cyano-3-(4-(4-oxopyridin-1(4H)-yl)phenyl)-1H-indazol-5-yl acrylate], the IC50 in data set [1] is 7.84 µM; in data set [4] it was 13.7 µM. In addition, the “CC50 (HepG2)/IC50 (Mino)” value in data set [2] worked out at 4.83. The CC50 at 72 h in data set [3] was determined as 66.2 µM. In data set [5], the “Amount of substance in the sample in %” value turned out to be 95.4%.

In the case of `C=CC(=O)N1CCC[C@@H](n2nc(-c3ccc(-n4ccc(=O)cc4)cc3)c3cc(N)c(C)nc32)C1` [BCD-BTK-119, (R)-1-(4-(1-(1-acryloylpiperidin-3-yl)-5-amino-6-methyl-1H-pyrazolo[3,4-b]pyridin-3-yl)phenyl) pyridin-4(1H)-one], the figures for the IC50 in data set [1] and in data set [4] were 25.5 µM and 12.3 µM, respectively. Besides, in data set [2], the “CC50 (HepG2)/IC50 (Mino)” value is listed as over 8.16. This molecule registered a CC50 at 72 h in data set [3] of over 100 µM. In addition, in data set [5], the “Amount of substance in the sample in %” value worked out at 100.0%.

For `C=CC(=O)N1CCC[C@@H](n2nc(-c3ccc(-n4ccc(=O)cc4)cc3)c3cc(O)cc(C#N)c32)C1` [BCD-BTK-122, (R)-1-(1-acryloylpiperidin-3-yl)-5-hydroxy-3-(4-(4-oxopyridin-1(4H)-yl)phenyl)-1H-indazol-7-carbonitrile], the IC50 in data set [1] came out at 36.5 µM; in data set [4] it was 35.6 µM. In data set [2], the “CC50 (HepG2)/IC50 (Mino)” value is recorded as over 2.81. For the same molecule, the half-maximal cytotoxic concentration (CC50) at 72 h in data set [3] is over 100 µM. Also, in data set [5], the “Amount of substance in the sample in %” value was 97.5%.

As for `C=CC(=O)Oc1cnc2c(c(-c3ccc(-n4ccc(=O)cc4)cc3)nn2[C@@H]2CCCN(C(=O)C=C)C2)c1Cl` [BCD-BTK-136, (R)-1-(1-acryloylpiperidin-3-yl)-4-chloro-3-(4-(4-oxopyridin-1(4H)phenyl)-1H-pyrazolo[3,4-b]pyridin-5-yl acrylate], the IC50 in data set [1] was over 50 µM; in data set [4] it was 12.5 µM. In addition, the “CC50 (HepG2)/IC50 (Mino)” value in data set [2] is over 7.97. In addition, the CC50 at 72 h in data set [3] is over 100 µM. In addition, the “Amount of substance in the sample in %” value in data set [5] was 89.9%.

Take `C=CC(=O)N1CCC[C@@H](n2nc(-c3ccc(Oc4ccncc4)cc3)c3cc(O)cc(C#N)c32)C1` [BCD-BTK-137]: the IC50 in data set [1] is 25.6 µM; in data set [4], 11.6 µM. Further, in data set [2], the “CC50 (HepG2)/IC50 (Mino)” value was determined as 5.70. Besides, the midpoint of cytotoxicity in data set [3], the CC50 at 72 h, lay at 65.9 µM. In data set [5], the “Amount of substance in the sample in %” value turned out to be 94.3%.

With `C=CC(=O)N1CCC[C@@H](n2nc(-c3ccc(Oc4ccncc4)cc3)c3cncc(C(N)=O)c32)C1` [BCD-BTK-140, (R)-1-(1-acryloylpiperidin-3-yl)-3-(4-(pyridin-4-yloxy)phenyl)-1H-pyrazolo[4,3-c]pyridin-7-carboxamide], the IC50 in data set [1] is over 50 µM; in data set [4], 16.9 µM. Besides, the “CC50 (HepG2)/IC50 (Mino)” value in data set [2] is recorded as over 5.93. The same molecule returned a CC50 at 72 h in data set [3] of over 100 µM. Besides, the “Amount of substance in the sample in %” value in data set [5] came to 99.4%.

For the molecule `C=CC(=O)N1CCC[C@@H](n2nc(-c3ccc(C(=O)Nc4cc(C(F)(F)CC)ccn4)cc3)c3cncc(C#N)c32)C1` [BCD-BTK-219, 4-{7-cyano-1-[1-(prop-2-enoyl)piperidin-3-yl]-1H-pyrazolo[4,3-c]pyridin-3-yl}-N-[4-(1,1-difluoropropyl)pyridin-2-yl] benzamide], the IC50 was about 50 µM in data set [1] and 10.1 µM in data set [4]. For the same molecule, in data set [2], the “CC50 (HepG2)/IC50 (Mino)” value is listed as over 9.95. For the same molecule, the cytotoxic concentration (CC50) at 72 h in data set [3] was over 100 µM. For the same molecule, in data set [5], the “Amount of substance in the sample in %” value is on record as 96.7%.

For the molecule `C=CC(=O)N1CCC[C@@H](n2nc(-c3ccc(C(=O)Nc4cc(C(C)(F)F)ccn4)cc3)c3cncc(C#N)c32)C1` [BCD-BTK-224, 4-{7-cyano-1-[(3R)-1-(prop-2-enoyl)piperidin-3-yl]-1H-pyrazolo[4,3-c]pyridin-3-yl}-N-[4-(1,1-difluoroethyl)pyridin-2-yl]benzamide], the half-inhibitory concentration (IC50) in data set [1] is over 50 µM; in data set [4], 11 µM. Besides, the “CC50 (HepG2)/IC50 (Mino)” value in data set [2] is 6.63. Also, the half-maximal cytotoxic concentration (CC50) at 72 h in data set [3] is 73.1 µM. Further, the “Amount of substance in the sample in %” value in data set [5] is listed as 100%.

As to `C=CC(=O)N1CCC[C@@H](n2nc(-c3ccc(Oc4ccncc4C(N)=O)cc3)c3cncc(F)c32)C1` [BCD-BTK-246, (R)-4-(4-(1-(1-acryloylpiperidin-3-yl)-7-fluoro-1H-pyrazolo[4,3-c]pyridin-3-yl)phenoxy)nicotinamide], the half-inhibitory concentration (IC50) in data set [1] came out at 23.7 µM; in data set [4] it was 32.4 µM. Further, the “CC50 (HepG2)/IC50 (Mino)” value in data set [2] was over 3.09. The molecule further showed a CC50 at 72 h in data set [3] of over 100 µM. Also, the “Amount of substance in the sample in %” value in data set [5] is 100%.
